The values below come from patent publication US20220106301A1, “ACETAMIDO-PHENYLBENZAMIDE DERIVATIVES AND METHODS OF USING THE SAME” (Athenex, Inc., priority 2020, published 2022).

Structures are written as SMILES. Some results are limits rather than exact numbers.

The test deals with CYP3A4 (Homo sapiens, UniProt P08684). The test is described as follows: Determination of CYP3A4 inhibitory activity (human liver microsome, Luciferin-IPA). The settings on record: CYP3A4 IC50 (nM), 37° C. 11 minutes. How it is done: The standard final Compound concentrations were 37, 111, 333, 1000, and 3000 nM. 12.5 μL of the Compound dilutions were transferred to a white 96-well plate. […] 25 μL of the buffer was added to each well. The plates were incubated at 37° C. for 11 minutes. 50 μL of luciferin detection reagent (Promega V9002) was added and the plates were incubated at room temperature for 5 minutes. The plate was read with a luminometer.
CYP3A4, sequence (P08684 whole entry): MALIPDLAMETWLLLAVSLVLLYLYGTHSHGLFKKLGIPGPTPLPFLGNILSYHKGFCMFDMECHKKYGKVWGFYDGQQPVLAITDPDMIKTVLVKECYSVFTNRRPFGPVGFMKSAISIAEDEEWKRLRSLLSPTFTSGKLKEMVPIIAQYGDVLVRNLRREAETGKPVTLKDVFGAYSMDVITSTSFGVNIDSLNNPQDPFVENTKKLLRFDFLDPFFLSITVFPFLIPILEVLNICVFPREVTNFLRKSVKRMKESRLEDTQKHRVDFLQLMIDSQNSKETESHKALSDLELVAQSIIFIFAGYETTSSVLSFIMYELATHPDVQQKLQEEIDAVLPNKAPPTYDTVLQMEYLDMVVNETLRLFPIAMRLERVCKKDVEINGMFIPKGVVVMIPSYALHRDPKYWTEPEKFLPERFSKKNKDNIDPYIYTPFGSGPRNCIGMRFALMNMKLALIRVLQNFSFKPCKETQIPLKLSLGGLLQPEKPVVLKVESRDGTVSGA
The dose-response curve and IC50 were obtained by fitting data to nonlinear regression model using GraphPad Prism software (v6.0).
Regarding `COc1cc(NC(=O)c2cc(=O)c3ccccc3o2)c(C(=O)Nc2ccc(CCN(C)Cc3ccc(-n4ccnc4)cc3)cc2)cc1OC` [Compound 1], the half-maximal inhibitory concentration (IC50) lay in the range of 100 to 250 nM.
`COc1cc(NC(=O)c2cnc3ccccc3c2)c(C(=O)Nc2ccc(CCN(C)Cc3ccc(-n4ccnc4)cc3)cc2)cc1OC` [Compound 2]: the IC50 fell in the range of 100 to 250 nM.
As to `COc1cc(NC(=O)c2cc(=O)c3ccccc3o2)c(C(=O)Nc2ccc(CCN(C)Cc3cccc(-n4ccnc4)c3)cc2)cc1OC` [Compound 3], the IC50 fell in the range of 100 to 250 nM.
With `COc1cc(NC(=O)c2cc(=O)c3ccccc3o2)c(C(=O)Nc2ccc(CCN(C)Cc3cccc(-c4cccnc4)c3)cc2)cc1OC` [Compound 7], the IC50 lay in the range of 500 to 1000 nM.
Turning to `COc1cc(NC(=O)c2cc(=O)c3ccccc3o2)c(C(=O)Nc2ccc(CCN(Cc3cccc(-n4ccnc4)c3)CC3CC3)cc2)cc1OC` [Compound 9], the concentration for half-maximal inhibition (IC50) fell in the range of 100 to 250 nM.
`COc1cc(NC(=O)c2cc(=O)c3ccccc3o2)c(C(=O)Nc2ccc(CCN(Cc3cccc(-n4ccnc4)c3)C(C)C)cc2)cc1OC` [Compound 10]: the IC50 was in the range of 250 to 500 nM.
With `COc1cc(NC(=O)c2cc(=O)c3ccccc3o2)c(C(=O)Nc2ccc(CCN(C)Cc3cccc(-n4cnc(C)c4)c3)cc2)cc1OC` [Compound 11], the IC50 fell in the range of 500 to 1000 nM.
Then `COc1cc(NC(=O)c2cc(=O)c3ccccc3o2)c(C(=O)Nc2ccc(CCN(C)Cc3ccc4c(c3)CNN4C)cc2)cc1OC` [Compound 12], with more than 1000 nM; and `COc1cc(NC(=O)c2cc(=O)c3ccccc3o2)c(C(=O)Nc2ccc(CCN(C)Cc3cccc(-c4c[nH]cn4)c3)cc2)cc1OC` [Compound 13], with more than 1000 nM; and `COc1cc(NC(=O)c2cc(=O)c3ccccc3o2)c(C(=O)Nc2ccc(CCN(C)Cc3cccc(-c4cncs4)c3)cc2)cc1OC` [Compound 15], with 500 to 1000 nM.
Turning to `COc1cc(NC(=O)c2cc(=O)c3ccccc3o2)c(C(=O)Nc2ccc(CCN(Cc3cccc(-n4ccnc4)c3)Cc3ccc4c(cnn4C)c3)cc2)cc1OC` [Compound 16], the IC50 fell in the range of 250 to 500 nM.
The same measure for `COc1cc(NC(=O)c2cc(=O)c3ccccc3o2)c(C(=O)Nc2ccc(CCN(C)Cc3cccc(OC[C@@H]4CO[C@@](Cn5ccnc5)(c5ccc(Cl)cc5Cl)O4)c3)cc2)cc1OC` [Compound 17]: less than 100 nM; for `COc1cc(NC(=O)c2cc(=O)c3ccccc3o2)c(C(=O)Nc2ccc(CCN(Cc3cncn3C)Cc3cncn3C)cc2)cc1OC` [Compound 18]: less than 100 nM.
Take `COc1cc(NC(=O)c2cc(=O)c3ccccc3o2)c(C(=O)Nc2ccc(CCN(C)Cc3ccc(-n4cncn4)cc3)cc2)cc1OC` [Compound 19]: the half-inhibitory concentration (IC50) was 250 to 500 nM.
Consider `CCN(CCc1ccc(NC(=O)c2cc(OC)c(OC)cc2NC(=O)c2cc(=O)c3ccccc3o2)cc1)Cc1ccc(-n2cncn2)cc1` [Compound 20], for which the IC50 lay within 100 to 250 nM.
As for `COc1cc(NC(=O)c2cc(=O)c3ccccc3o2)c(C(=O)Nc2ccc(CCN(Cc3ccc4c(cnn4C)c3)Cc3cncn3C)cc2)cc1OC` [Compound 21], the IC50 was less than 100 nM.
Compound `COc1cc(NC(=O)c2cc(=O)c3ccccc3o2)c(C(=O)Nc2ccc(CCN(Cc3cccc(-n4cnc(C)c4)c3)Cc3ccc4c(cnn4C)c3)cc2)cc1OC` [Compound 23] showed an IC50 of 250 to 500 nM.
In the case of `CCN(CCc1ccc(NC(=O)c2cc(OC)c(OC)cc2NC(=O)c2cc(=O)c3ccccc3o2)cc1)Cc1ccc(OC)c(Cn2cncn2)c1` [Compound 24], the IC50 was 100 to 250 nM.
The compound `CCN(CCc1ccc(NC(=O)c2cc(OC)c(OC)cc2NC(=O)c2cc(=O)c3ccccc3o2)cc1)Cc1cccn1Cc1cccnc1` [Compound 25] had an IC50 of 250 to 500 nM.
Regarding `COc1cc(NC(=O)c2cc(=O)c3ccccc3o2)c(C(=O)Nc2ccc(CCN(Cc3ccc(-n4ccnc4)cc3)Cc3ccc4c(cnn4C)c3)cc2)cc1OC` [Compound 26], the IC50 fell in the range of 250 to 500 nM.
For `COc1ccc(CN(CCc2ccc(NC(=O)c3cc(OC)c(OC)cc3NC(=O)c3cc(=O)c4ccccc4o3)cc2)Cc2cccc(-n3ccnc3)c2)cc1OC` [Compound 27], the IC50 lay within 100 to 250 nM.
The same measure for `COc1ccc(CN(CCc2ccc(NC(=O)c3cc(OC)c(OC)cc3NC(=O)c3cc(=O)c4ccccc4o3)cc2)Cc2ccc(-n3ccnc3)cc2)cc1OC` [Compound 28]: 100 to 250 nM; for `COc1ccc(CN(CCc2ccc(NC(=O)c3cc(OC)c(OC)cc3NC(=O)c3cc(=O)c4ccccc4o3)cc2)Cc2cccnc2)cc1OC` [Compound 29]: 100 to 250 nM.
Then `COc1cc(NC(=O)c2cnc3ccccc3n2)c(C(=O)Nc2ccc(CCN(Cc3cccc(-n4ccnc4)c3)Cc3ccc4c(cnn4C)c3)cc2)cc1OC` [Compound 30], with 500 to 1000 nM; and `COc1cc(NC(=O)c2cc(=O)c3ccccc3o2)c(C(=O)Nc2ccc(CCN(Cc3cccnc3)Cc3ccc4cnn(C)c4c3)cc2)cc1OC` [Compound 32], with less than 100 nM; and `COc1cc(NC(=O)c2cc(=O)c3ccccc3o2)c(C(=O)Nc2ccc(CCN(Cc3ccncc3)Cc3ccc4c(cnn4C)c3)cc2)cc1OC` [Compound 33], with less than 100 nM.
The compound `CCn1cncc1CN(CCc1ccc(NC(=O)c2cc(OC)c(OC)cc2NC(=O)c2cnc3ccccc3n2)cc1)Cc1ccc2c(cnn2C)c1` [Compound 34] displayed an IC50 of 100 to 250 nM.
In the case of `COc1cc(NC(=O)c2cc(=O)c3ccccc3o2)c(C(=O)Nc2ccc(CCN(CC3=CNCN3C)Cc3ccc4cnn(C)c4c3)cc2)cc1OC` [Compound 35], the IC50 is more than 1000 nM.
Turning to `COc1cc(NC(=O)c2cc(=O)c3ccccc3o2)c(C(=O)Nc2ccc(CCN(Cc3ccc4cnn(C)c4c3)Cc3ncc[nH]3)cc2)cc1OC` [Compound 36], the IC50 fell in the range of 100 to 250 nM.
`CCN1CNC=C1CN(CCc1ccc(NC(=O)c2cc(OC)c(OC)cc2NC(=O)c2cc(=O)c3ccccc3o2)cc1)Cc1ccc2cnn(C)c2c1` [Compound 37] gave an IC50 of 100 to 250 nM.
The same measure for `COc1cc(NC(=O)c2cc(=O)c3cc(C)ccc3o2)c(C(=O)Nc2ccc(CCN(Cc3cccnc3)Cc3ccc4c(cnn4C)c3)cc2)cc1OC` [Compound 38]: 100 to 250 nM; for `COc1cc(NC(=O)c2cc(=O)c3cc(C)cc(C)c3o2)c(C(=O)Nc2ccc(CCN(Cc3cccnc3)Cc3ccc4c(cnn4C)c3)cc2)cc1OC` [Compound 39]: 250 to 500 nM; for `COc1cc(NC(=O)c2cc(=O)c3ccccc3o2)c(C(=O)Nc2ccc(CCN(Cc3cccnc3)Cc3ccc4cnn(C)c4c3)cc2)cc1OC` [Compound 42]: 250 to 500 nM.
Compound `COc1cc(NC(=O)c2cc(=O)c3ccccc3o2)c(C(=O)Nc2ccc(CCN(Cc3cccnc3)Cc3ccc4c(c3)n(C)c(=O)n4C)cc2)cc1OC` [Compound 44] returned an IC50 of 100 to 250 nM.
In the case of `COc1cc(NC(=O)c2cc(=O)c3ccccc3o2)c(C(=O)Nc2ccc(CCN(Cc3cccnc3)Cc3ccc4c(c3)CCO4)cc2)cc1OC` [Compound 45], the IC50 was in the range of 250 to 500 nM.
The same measure for `COc1cc(NC(=O)c2cc(=O)c3ccccc3o2)c(C(=O)Nc2ccc(CCN(Cc3cncc(F)c3)Cc3ccc4c(cnn4C)c3)cc2)cc1OC` [Compound 46]: 250 to 500 nM; for `COc1cc(NC(=O)c2cc(=O)c3ccccc3o2)c(C(=O)Nc2ccc(CCN(Cc3ccc4c(cnn4C)c3)Cc3ccncc3F)cc2)cc1OC` [Compound 47]: 250 to 500 nM; for `COc1cncc(CN(CCc2ccc(NC(=O)c3cc(OC)c(OC)cc3NC(=O)c3cc(=O)c4ccccc4o3)cc2)Cc2ccc3c(cnn3C)c2)c1` [Compound 48]: 100 to 250 nM.

What is called IC50 is the point on the concentration scale where inhibition reaches its midpoint.
